Experimental data from US20020111486A1, “Transition metal-cyclopentadienyl-tropane conjugates” (priority 1999, published 2002).

How the values were obtained:
Settings in all cases: mean±SEM; rat striatal and cortical tissues
[1] = target: T1, dopamine transporter (DAT) (Rattus norvegicus, UniProt P23977); test: Dopamine transporter binding affinity in rat striatal tissue
T1 construct: from tissue; host or cells: rat striatal tissue
Protocol: (§1) The binding affinities (mean±SEM) of compounds 1a, 1b, 1c, 1d, and 1e for the dopamine transporter (DAT), the serotonin transporter (5-HTT), and norepinephrine (NET) were evaluated in, respectively, rat striatal and cortical tissues according to methods described in Tamagnan et al., Advances in Neurology, Parkinson's Disease. 80: 91-103 (1999). The results are summarized in Table 1 below. β-CIT was run concurrently as a control.

norepinephrine (NET) = target: T2, norepinephrine (NET) (Rattus norvegicus, UniProt Q63380); test: Norepinephrine transporter binding affinity in rat tissue
T2 construct: from tissue
T2 sequence (Q63380 1-617): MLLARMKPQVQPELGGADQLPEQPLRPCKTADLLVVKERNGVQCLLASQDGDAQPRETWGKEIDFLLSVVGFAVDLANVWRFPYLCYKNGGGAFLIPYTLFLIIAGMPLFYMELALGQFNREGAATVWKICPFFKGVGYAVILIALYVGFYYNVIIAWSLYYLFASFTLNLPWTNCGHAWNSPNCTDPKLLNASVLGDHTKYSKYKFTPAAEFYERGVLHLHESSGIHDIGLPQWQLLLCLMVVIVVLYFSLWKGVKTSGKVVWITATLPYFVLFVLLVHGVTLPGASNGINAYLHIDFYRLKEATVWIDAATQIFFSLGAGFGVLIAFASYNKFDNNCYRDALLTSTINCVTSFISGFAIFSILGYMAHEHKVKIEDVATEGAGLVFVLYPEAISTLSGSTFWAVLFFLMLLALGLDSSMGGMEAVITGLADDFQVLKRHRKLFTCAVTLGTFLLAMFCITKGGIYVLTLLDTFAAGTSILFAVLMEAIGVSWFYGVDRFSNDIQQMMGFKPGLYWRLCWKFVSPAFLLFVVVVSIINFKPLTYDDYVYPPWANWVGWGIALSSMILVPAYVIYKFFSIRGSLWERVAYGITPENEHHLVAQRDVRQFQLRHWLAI
Protocol: as §1

[2] = target: T3, serotonin transporter (5-HTT) (Rattus norvegicus, UniProt P31652); test: Serotonin transporter binding affinity in rat tissue
T3 construct: from tissue
T3 sequence (P31652 whole entry): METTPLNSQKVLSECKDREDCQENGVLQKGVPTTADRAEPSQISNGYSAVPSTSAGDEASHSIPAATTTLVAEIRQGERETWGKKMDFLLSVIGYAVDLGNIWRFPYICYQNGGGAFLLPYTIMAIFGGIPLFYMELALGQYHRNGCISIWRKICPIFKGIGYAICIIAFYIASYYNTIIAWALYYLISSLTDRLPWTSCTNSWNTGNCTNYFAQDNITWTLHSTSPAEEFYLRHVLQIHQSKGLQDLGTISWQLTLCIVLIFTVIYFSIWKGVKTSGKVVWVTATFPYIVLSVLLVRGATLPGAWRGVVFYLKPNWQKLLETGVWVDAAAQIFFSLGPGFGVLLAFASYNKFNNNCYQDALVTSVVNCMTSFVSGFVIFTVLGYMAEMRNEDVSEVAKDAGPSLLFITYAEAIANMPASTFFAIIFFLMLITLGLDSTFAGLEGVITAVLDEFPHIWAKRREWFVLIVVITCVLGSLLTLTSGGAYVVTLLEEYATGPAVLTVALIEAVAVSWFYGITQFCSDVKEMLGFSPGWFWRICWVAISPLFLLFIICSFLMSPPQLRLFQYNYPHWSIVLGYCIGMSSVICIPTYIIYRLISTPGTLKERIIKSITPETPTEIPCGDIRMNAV
Protocol: as §1

T1 sequence (P23977 whole entry): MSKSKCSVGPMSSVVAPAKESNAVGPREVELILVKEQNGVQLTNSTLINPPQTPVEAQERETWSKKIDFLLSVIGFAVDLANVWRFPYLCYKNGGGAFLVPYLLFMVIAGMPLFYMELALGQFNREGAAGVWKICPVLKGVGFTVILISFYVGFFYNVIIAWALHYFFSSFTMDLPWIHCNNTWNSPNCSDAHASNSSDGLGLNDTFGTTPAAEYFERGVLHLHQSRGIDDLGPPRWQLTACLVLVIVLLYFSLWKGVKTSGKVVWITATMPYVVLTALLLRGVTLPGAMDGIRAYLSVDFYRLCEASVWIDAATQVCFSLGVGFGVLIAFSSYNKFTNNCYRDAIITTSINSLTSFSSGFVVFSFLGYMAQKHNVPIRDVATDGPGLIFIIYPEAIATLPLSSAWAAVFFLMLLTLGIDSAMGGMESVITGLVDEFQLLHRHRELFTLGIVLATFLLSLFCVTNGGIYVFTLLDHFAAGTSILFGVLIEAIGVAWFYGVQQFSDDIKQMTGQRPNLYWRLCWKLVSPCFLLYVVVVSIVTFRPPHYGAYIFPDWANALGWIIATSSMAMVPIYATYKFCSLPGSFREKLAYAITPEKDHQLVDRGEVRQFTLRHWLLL

## 3-(4-Chlorophenyl)-8-(3-tricarbonylrhenatocyclopentadienyloxy-carbonylpropyl)-8-aza-bicyclo[3.2.1 ]octane-2-carboxylic acid methyl ester [Compound 1b]
[1]
  Ki: 4.18 ± 0.33 nM
Norepinephrine (NET)
  Ki: 74 ± 8.2 nM
[2]
  Ki: 5.28 ± 0.21 nM

## 3β-(4-Chlorophenyl)-8-(4-cyclopentadienyltricarbonyl rhenium-butyl)-8-azabicyclo[3.2.1 ]octane-2β-carboxylic acid methyl ester [Compound 1d]
[1]
  Ki: 5.45 ± 0.64 nM
Norepinephrine (NET)
  Ki: 199 ± 30 nM
[2]
  Ki: 1.14 ± 0.16 nM

## 8-Methyl-3β-[4 carbonyl -(cyclopentadienyltricarbonyl rhenium)-phenyl]-8-azabicyclo[3.2.1 ]octane-2β-carboxylic acid methyl ester [Compound 1c]
[1]
  Ki: > 10000 nM
Norepinephrine (NET)
  Ki: > 30000 nM
[2]
  Ki: > 10000 nM

## COC(=O)C1C(c2ccc(I)cc2)CC2CCC1N2C (stereo not drawn) [β-CIT, β-Carbomethoxy-3β-(4-iodophenyl) tropane, reference compound]
[1]
  Ki: 0.96 ± 0.15 nM
Norepinephrine (NET)
  Ki: 2.8 ± 0.4 nM
[2]
  Ki: 0.46 ± 0.06 nM

## N-(4-oxo-4-tricarbonylcyclopentadienylrhenio)-2β-hydroxymethyl-3β-(4-chlorophenyl)-nortropane [Compound 1a]
[1]
  Ki: 13 ± 1.8 nM
Norepinephrine (NET)
  Ki: 74 ± 8.2 nM
[2]
  Ki: 13.3 ± 1 nM
